Data as given in ChEMBL document CHEMBL4145614, “Cyclopeptides from the Sponge Stylissa flabelliformis” (J Nat Prod, 2018).
Where a SMILES comes first, the peptide text is derived from it.

Tests used:
HCT-116 = assay: Cytotoxicity against human HCT116 cells after 72 hrs by sulforhodamine B assay; type: functional, cell-based; conditions: Homo sapiens, HCT-116, 72 h
K562 = assay: Cytotoxicity against human K562 cells after 72 hrs by sulforhodamine B assay; type: functional, cell-based; conditions: Homo sapiens, K562, 72 h
MDA-MB-231 = assay: Cytotoxicity against human MDA-MB-231 cells after 72 hrs by sulforhodamine B assay; type: functional, cell-based; conditions: Homo sapiens, MDA-MB-231, 72 h
SK-HEP1 = assay: Cytotoxicity against human SKHEP1 cells after 72 hrs by sulforhodamine B assay; type: functional, cell-based; conditions: Homo sapiens, SK-HEP1, 72 h
SNU-638 = assay: Cytotoxicity against human SNU638 cells after 72 hrs by sulforhodamine B assay; type: functional, cell-based; conditions: Homo sapiens, SNU-638, 72 h
[1] = molecular target: Sodium/potassium-transporting ATPase; assay: Inhibition of potassium-activated sodium/potassium ATPase in human placenta using 3-O-methylfluorescein phosphate as substrate measured for 90 secs by fluorescence assay
[2] = Inhibition of recombinant bacterial sortase A using Dabcyl-QALPETGEE-Edans as substrate measured after 1 hr by fluorescence assay; parameters: species or system Bacteria
Staphylococcus aureus = assay: Antibacterial activity against Staphylococcus aureus ATCC 6538P measured after 24 hrs; type: functional
Bacillus spizizenii = assay: Antibacterial activity against Bacillus subtilis ATCC 6633 measured after 24 hrs; type: functional; conditions: ATCC 6633, 24 h
Micrococcus luteus = assay: Antibacterial activity against Micrococcus luteus IFC 12708 measured after 24 hrs; type: functional; conditions: IFC 12708, 24 h
Proteus vulgaris = assay: Antibacterial activity against Proteus vulgaris ATCC 3851 measured after 24 hrs; type: functional; conditions: ATCC 3851, 24 h
Salmonella typhimurium = assay: Antibacterial activity against Salmonella typhimurium ATCC 14028 measured after 24 hrs; type: functional, Salmonella enterica subsp. enterica serovar Typhimurium; conditions: Salmonella enterica, ATCC 14028, 24 h
Escherichia coli = assay: Antibacterial activity against Escherichia coli ATCC 25922 measured after 24 hrs; type: functional; conditions: ATCC 25922, 24 h
Candida albicans = assay: Antifungal activity against Candida albicans ATCC 10231 measured after 48 to 72 hrs; type: functional
Aspergillus fumigatus = assay: Antifungal activity against Aspergillus fumigatus HIC 6094 measured after 48 to 72 hrs; type: functional
Trichophyton rubrum = assay: Antifungal activity against Trichophyton rubrum IFO 9185 measured after 48 to 72 hrs; type: functional
[3] = test system: Trichophyton mentagrophytes; assay: Antifungal activity against Trichophyton mentagrophytes IFO 40996 measured after 48 to 72 hrs; type: functional
A549 = assay: cells; conditions: Homo sapiens, A549, 72 h
Description: Cytotoxicity against human A549 cells after 72 hrs by sulforhodamine B assay

| Structure (SMILES) | IC50 (HCT-116) [µM] | IC50 (K562) [µM] | IC50 (MDA-MB-231) [µM] | IC50 (SK-HEP1) [µM] | IC50 (SNU-638) [µM] | IC50 [1] [µM] | IC50 [2] [µM] | MIC (Staphylococcus aureus) [µM] | MIC (Bacillus spizizenii) [µM] | MIC (Micrococcus luteus) [µM] | MIC (Proteus vulgaris) [µM] | MIC (Salmonella typhimurium) [µM] | MIC (Escherichia coli) [µM] | MIC (Candida albicans) [µM] | MIC (Aspergillus fumigatus) [µM] | MIC (Trichophyton rubrum) [µM] | MIC [3] [µM] | IC50 (A549) [µM] |
| --- | --- | --- | --- | --- | --- | --- | --- | --- | --- | --- | --- | --- | --- | --- | --- | --- | --- | --- |
| CC[C@H](C)[C@@H]1NC(=O)[C@@H]2CCCN2C(=O)[C@H](Cc2ccc(O)cc2)NC(=O)[C@@H]2CCCN2C(=O)[C@H]([C@@H](C)CC)NC(=O)[C@@H]2CCCN2C(=O)[C@H](Cc2ccccc2)NC1=O (HELM PEPTIDE1{F.P.I.P.Y.P.I}$PEPTIDE1,PEPTIDE1,1:R1-7:R2$$$V2.0) | 3.9 | 33 | 9.1 | 7.7 | 37 | > 100 | > 100 | > 128 | > 128 | > 128 | > 128 | > 128 | > 128 | > 128 | > 128 | > 128 | > 128 | 6.7 |
| CC[C@H](C)[C@@H]1NC(=O)[C@@H]2CCCN2C(=O)[C@@H]2CCCN2C(=O)[C@H]([C@@H](C)CC)NC(=O)[C@H](Cc2ccc(O)cc2)NC(=O)[C@@H]2CCCN2C(=O)[C@@H]2CCCN2C(=O)[C@H](CC(C)C)NC(=O)[C@H](C(C)C)NC(=O)[C@H](Cc2ccccc2)NC1=O (HELM PEPTIDE1{F.V.L.P.P.Y.I.P.P.I}$PEPTIDE1,PEPTIDE1,1:R1-10:R2$$$V2.0) | 0.1 | 0.29 | 2.5 | 2.3 | 1.7 | > 100 | > 100 | > 128 | > 128 | > 128 | > 128 | > 128 | > 128 | > 128 | > 128 | > 128 | > 128 | 0.54 |
| CC[C@H](C)[C@@H]1NC(=O)[C@@H]2CCCN2C(=O)[C@@H]2CCCN2C(=O)[C@H](C(C)C)NC(=O)[C@H](Cc2ccc(O)cc2)NC(=O)[C@@H]2CCCN2C(=O)[C@@H]2CCCN2C(=O)[C@H](CC(C)C)NC(=O)[C@H](C(C)C)NC(=O)[C@H](Cc2ccccc2)NC1=O (HELM PEPTIDE1{F.V.L.P.P.Y.V.P.P.I}$PEPTIDE1,PEPTIDE1,1:R1-10:R2$$$V2.0) | 1 | 1.1 | 8.6 | 12 | 2.2 | > 100 | > 100 | > 128 | > 128 | > 128 | > 128 | > 128 | > 128 | > 128 | > 128 | > 128 | > 128 | 1.4 |
| CC[C@H](C)[C@@H]1NC(=O)[C@H](C)NC(=O)[C@H](CC(C)C)NC(=O)[C@@H]2CCCN2C(=O)[C@H](CC(=O)O)NC(=O)[C@H](Cc2ccc(O)cc2)NC(=O)[C@@H]2CCCN2C1=O (HELM PEPTIDE1{A.I.P.Y.D.P.L}$PEPTIDE1,PEPTIDE1,1:R1-7:R2$$$V2.0) | > 50 | > 50 | > 50 | > 50 | > 50 | > 100 | > 100 | > 128 | > 128 | > 128 | > 128 | > 128 | > 128 | > 128 | > 128 | > 128 | > 128 | > 50 |
| C[C@@H]1NC(=O)[C@H]([C@@H](C)O)NC(=O)[C@H](Cc2ccc(O)cc2)NC(=O)[C@@H]2CCCN2C(=O)[C@H](Cc2ccc(O)cc2)NC(=O)[C@H](CCCNC(=N)N)NC(=O)[C@@H]2CCCN2C(=O)[C@H](CC(N)=O)NC1=O [CYCLONELLIN] (HELM PEPTIDE1{A.N.P.R.Y.P.Y.T}$PEPTIDE1,PEPTIDE1,1:R1-8:R2$$$V2.0) | > 50 | > 50 | > 50 | > 50 | > 50 | > 100 | > 100 | > 128 | > 128 | > 128 | > 128 | > 128 | > 128 | > 128 | > 128 | > 128 | > 128 | > 50 |
| CC[C@H](C)[C@@H]1NC(=O)[C@H](Cc2ccccc2)NC(=O)[C@@H]2CCCN2C(=O)[C@@H]([C@H](C)O)NC(=O)[C@@H]2CCCN2C(=O)[C@H](CO)NC(=O)[C@H](C)NC1=O | 4.5 | 30 | 10 | 7.2 | 24 | > 100 | > 100 | > 128 | > 128 | > 128 | > 128 | > 128 | > 128 | > 128 | > 128 | > 128 | > 128 | 7.4 |
| CC[C@H](C)[C@@H]1NC(=O)[C@H](Cc2ccccc2)NC(=O)[C@@H]2CCCN2C(=O)[C@H](Cc2ccccc2)NC(=O)[C@@H]2CCCN2C(=O)[C@H](CCC(N)=O)NC(=O)[C@@H]2CCCN2C(=O)[C@H](Cc2ccccc2)NC1=O [PHAKELLI STATIN 11] (HELM PEPTIDE1{F.I.F.P.Q.P.F.P}$PEPTIDE1,PEPTIDE1,1:R1-8:R2$$$V2.0) | 1.6 | 5.6 | 3.2 | 1.7 | 6.9 | > 100 | > 100 | > 128 | > 128 | > 128 | > 128 | > 128 | > 128 | > 128 | > 128 | > 128 | > 128 | 2.8 |
| CC[C@H](C)[C@@H]1NC(=O)[C@@H]2CCCN2C(=O)[C@H](Cc2ccccc2)NC(=O)[C@@H]2CCCN2C(=O)[C@H](Cc2ccc(O)cc2)NC(=O)[C@@H]2CCCN2C(=O)[C@H]([C@@H](C)CC)NC1=O [PHAKELLISTATIN 2] (HELM PEPTIDE1{F.P.I.I.P.Y.P}$PEPTIDE1,PEPTIDE1,1:R1-7:R2$$$V2.0) | 0.71 | 3.2 | 1.3 | 0.77 | 1.6 | > 100 | > 100 | > 128 | > 128 | > 128 | > 128 | > 128 | > 128 | > 128 | > 128 | > 128 | > 128 | 0.66 |
| CC(C)C[C@@H]1NC(=O)[C@H](CO)NC(=O)[C@@H]2CCCN2C(=O)[C@H](Cc2ccc(O)cc2)NC(=O)[C@H](Cc2ccc(O)cc2)NC(=O)[C@@H]2CCCN2C(=O)[C@H](Cc2ccc(O)cc2)NC1=O (HELM PEPTIDE1{L.Y.P.Y.Y.P.S}$PEPTIDE1,PEPTIDE1,1:R1-7:R2$$$V2.0) | > 50 | > 50 | > 50 | > 50 | > 50 | > 100 | > 100 | > 128 | > 128 | > 128 | > 128 | > 128 | > 128 | > 128 | > 128 | > 128 | > 128 | > 50 |
| CC[C@H](C)[C@@H]1NC(=O)[C@H](C)NC(=O)[C@H](CC[S+](C)[O-])NC(=O)[C@H](C)NC(=O)[C@H](CC(N)=O)NC(=O)[C@H](Cc2ccccc2)NC(=O)[C@@H]2CCCN2C1=O (some centres undefined) (HELM PEPTIDE1{A.I.P.F.N.A.[CS(=O)CC[C@H](N[*:1])C(=O)[*:2]]}$PEPTIDE1,PEPTIDE1,1:R1-7:R2$$$V2.0) | 12 | 11 | 12 | 13 | 12 | > 100 | > 100 | > 128 | > 128 | > 128 | > 128 | > 128 | > 128 | > 128 | > 128 | > 128 | > 128 | 15 |
| CC[C@H](C)[C@@H]1NC(=O)[C@H](Cc2ccccc2)NC(=O)[C@@H]2CCCN2C(=O)[C@H](Cc2ccc(O)cc2)NC(=O)[C@H](CCC(=O)O)NC(=O)[C@@H]2CCCN2C(=O)[C@@H]2CCCN2C1=O (HELM PEPTIDE1{E.Y.P.F.I.P.P}$PEPTIDE1,PEPTIDE1,1:R1-7:R2$$$V2.0) | 6.2 | 3.9 | 17 | 11 | 11 | > 100 | > 100 | > 128 | > 128 | > 128 | > 128 | > 128 | > 128 | > 128 | > 128 | > 128 | > 128 | 19 |
| COc1cc([C@@H]2c3cc4c(cc3[C@@H](O[C@@H]3O[C@@H]5CO[C@@H](C)O[C@H]5[C@H](O)[C@H]3O)[C@H]3COC(=O)[C@H]23)OCO4)cc(OC)c1O [ETOPOSIDE] | 0.68 | 1.3 | 4.4 | 0.93 | 0.43 | – | – | – | – | – | – | – | – | – | – | – | – | 0.72 |
